# Patent US20080193963A1, “Method of Determining the State of Activation of a Protein” (NAMBITION GMBH, priority 2005, published 2008)
# Target: T1, NhaA (Escherichia coli, UniProt P13738)
# T1 construct: Pulling NhaA (402aa) from either the N- or C-terminus; His6 (C); made in house; host or cells: E. coli BL21(DE3)
# Experiment: Single-molecule force spectroscopy (SMFS) unfolding of NhaA in presence of inhibitor
# Format: binding
# Description: We used a NanoWizard AFM (JPK Instruments, Germany) with an 850 nm laser detection system. As AP absorbs light between 290 and 350 nm, we avoided double-photon excitation and photobleaching by the laser. The spring constants of the 200 μm long (di-Veeco, USA) and 80μ long (Olympus, Japan) Si3N4 AFM cantilevers used were determined using the equipartion theorem (Butt H. J., 1995; Florin, 1995). NhaA was reconstituted into E. coli polar lipid bilayers forming two-dimensional crystals (Williams et al., 1999). Membranes were immobilized on freshly cleaved mica in 200 mM KCl, 10% glycerol, 25 mM K^+-acetate, pH 4.0 for 20 min. Experiments were performed in buffer solutions containing 190 mM KCl and 10 mM NaCl at pH 7.7 (20 mM tris-HCl) and pH 4.0 (20 mM citric acid). AP concentrations of prepared solutions were determined by their optical densities at λ=305.5 using the excitation coefficient eAP=7500 M^−1·cm^−1 (Additional Ref. 151). Solutions containing AP were kept away from light and experiments were performed in a dark room. Buffer solutions were made in fresh nano-pure water (18.2MΩ·cm^−1), using p. a. purity grade reagents from Sigma/Merck. AFM topographs of immobilized membrane patches resolved the crystalline NhaA arrangements, which were selected to unfold individual proteins (Kedrov et al., 2004).
# Only C-terminal unfolding events were studied as they are dominant at pH 7.7 (Additional Ref. 152). To obtain the unfolded polpeptide chain length each force peak was fifted using the worm-like-chain (Bustamante et al., 1994) model as described ([…]). Individual unfolding barriers were located by subtracting the unfolded polypeptide length fron the C-terminus. For each force peak (unfolding barrier) the probability and average forces were calculated. At every studied condition up to 150 single-molecule unfolding events were analyzed using Igor Pro (Wavemetrics Inc., USA) and home-written macros. To probe the statistical difference of data sets the data were tested against one-way ANOVA analysis.
# T1 sequence (P13738 whole entry): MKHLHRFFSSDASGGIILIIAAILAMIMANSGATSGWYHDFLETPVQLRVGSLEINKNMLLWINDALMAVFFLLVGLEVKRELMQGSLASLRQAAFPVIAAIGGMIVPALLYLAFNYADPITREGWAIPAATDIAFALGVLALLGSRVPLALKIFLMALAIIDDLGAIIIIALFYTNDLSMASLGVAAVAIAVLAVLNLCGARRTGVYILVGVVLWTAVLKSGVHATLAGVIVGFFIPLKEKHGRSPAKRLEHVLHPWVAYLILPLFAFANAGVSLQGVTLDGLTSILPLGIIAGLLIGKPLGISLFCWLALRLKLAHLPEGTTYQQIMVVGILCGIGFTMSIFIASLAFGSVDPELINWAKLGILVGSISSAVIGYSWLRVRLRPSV
smiles,measurement,setting,value
"NC1=Nc2cccc3cccc(c23)N1 [AP, 2-aminoperimidine]","""stable"" fraction in histograms of force at helix IX (AP binding) with increasing Na+ concentration","40 μM AP, 10 or 200 μM NaCl as printed",drastic decrease
same,average strength of the interaction detected by the 125aa force peak (helix XI as printed),"40 μM AP, NhaA activated at pH 7.7, mean ±SD, n=95, without AP 75±29 pN (n=61), p<0.0001",105±41 pN
same,enhanced interaction strength of a fraction of NhaA molecules (125aa peak) after exposure to AP,"pH 7.7, NhaA.AP complex population, free NhaA ≈75 pN",≈ 140 pN
same,NhaA molecules that established enhanced stability at α-helix IX,"pH-locked conformation, pH 4.0, incubated with 40 μM AP",≈ 15%
